Measurements: patent US20260042755A1, “GPR6 INVERSE AGONISTS” (MapLight Therapeutics, Inc., priority 2022, published 2026)

Legend:
GPR6 = target: T1, GPR6 (Homo sapiens, UniProt P46095); assay: GPR6 antagonist functional cAMP assay (LANCE Ultra cAMP TR-FRET, CHO cells stably expressing GPR6); format: cell-based
T1 construct: expressed in transfected cells; host or cells: CHO cells
Description: (§1) Example 56. GPR6 and GPR3 Antagonist Functional cAMP Assay
(§2) CHO cells stably expressing GPR6 or GPR3 receptors were dissociated from cell culture flasks and incubated for 2 h at 37° C. in a 10 cm dish in a humidified incubator. Cells were dissociated, counted to have 1e6 cells/mL (4.5e6 cells needed/384-well plate), washed once in starved media, than in D-PBS and finally suspended in assay buffer (Krebs-Ringer Bicarbonate Buffer with 1800 mg/L glucose, without calcium chloride and sodium bicarbonate (Sigma) in the presence of 0.1% BSA and 150 μM of Ro 20-1724 Phosphodiesterase inhibitor).
(§3) Cells in suspension from above were plated in 384-well white Optiplate (PerkinElmer) at 10,000 cells/well/10 μl, briefly centrifuged prior direct addition of compounds ([…]) in 10 mM DMSO using a Tecan D300e Digital Dispenser, final DMSO in each well was normalized to 0.1%. Cells were incubated in the presence of compounds for 45 min at 37° C. in a humidified incubator.
(§4) To measure cAMP levels, LANCE® Ultra cAMP assay (Perkin Elmer), a homogeneous time-resolved fluorescence resonance energy transfer (TR-FRET) immunoassay was used following manufacturer's recommendations. Plates were shaken for 1 h at room temperature before reading on a Tecan InfiniteF200Pro multi-mode plate reader using standard FRET settings (Excitation 340 nm, Emission at 615 nm). FRET values were reported as readings obtained at 665 nm. Data were normalized to DMSO (0.1%) and reference compounds (100%) and fit to a 4-parameter logistical fit to generate antagonist IC50s.

GPR3 = target: T2, GPR3 (Homo sapiens, UniProt P46089); assay: GPR3 antagonist functional cAMP assay (LANCE Ultra cAMP TR-FRET, CHO cells stably expressing GPR3); format: cell-based
T2 construct: expressed in transfected cells; host or cells: CHO cells
Description: as §1, §2, §3, §4

[1] = CHO cells stably expressing GPR6, cAMP assay
[2] = CHO cells stably expressing GPR3, cAMP assay
[3] = CHO cells stably expressing GPR6, cAMP assay (Example 24)
[4] = CHO cells stably expressing GPR3, cAMP assay (Example 24)
[5] = procedure as described in Example 24

T1 sequence (P46095 whole entry): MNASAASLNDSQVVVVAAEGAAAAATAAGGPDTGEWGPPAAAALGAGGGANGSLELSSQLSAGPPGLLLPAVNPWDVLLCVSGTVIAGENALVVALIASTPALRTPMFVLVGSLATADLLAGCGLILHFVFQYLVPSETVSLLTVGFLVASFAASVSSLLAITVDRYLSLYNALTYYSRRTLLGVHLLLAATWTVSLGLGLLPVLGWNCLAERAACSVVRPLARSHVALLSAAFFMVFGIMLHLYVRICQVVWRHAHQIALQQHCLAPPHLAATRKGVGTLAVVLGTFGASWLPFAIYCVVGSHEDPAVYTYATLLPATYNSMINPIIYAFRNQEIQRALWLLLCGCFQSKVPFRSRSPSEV
T2 sequence (P46089 whole entry, species assumed): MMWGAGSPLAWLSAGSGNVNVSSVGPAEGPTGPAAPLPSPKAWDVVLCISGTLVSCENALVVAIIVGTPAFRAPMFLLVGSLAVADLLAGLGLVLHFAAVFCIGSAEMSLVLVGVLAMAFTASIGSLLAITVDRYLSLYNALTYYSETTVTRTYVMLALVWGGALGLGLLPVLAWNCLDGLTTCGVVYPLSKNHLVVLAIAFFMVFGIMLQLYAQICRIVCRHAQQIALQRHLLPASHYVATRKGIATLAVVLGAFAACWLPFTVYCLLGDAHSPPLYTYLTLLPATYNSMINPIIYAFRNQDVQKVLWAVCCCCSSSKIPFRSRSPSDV

| Compound | IC50 (GPR6; procedure of Example 24) | IC50 (GPR3; procedure of Example 24) | IC50 (GPR6; [3]) | IC50 (GPR3; [4]) | further results |
| --- | --- | --- | --- | --- | --- |
| CC(=O)N1CCc2nc(N3CCN(C(CO)(CO)c4cc(F)ccc4F)CC3)c(-c3cnn(C)c3)nc2C1 [Compound 551, 1-(2-{4-[1-(2,5-difluorophenyl)-2-hydroxy-1-(hydroxymethyl)ethyl]-1-piperazinyl}-3-(1-methyl-4-pyrazolyl)-5,6,7,8-tetrahydro-1,4,6-triaza-6-naphthyl)-1-ethanone] | – | – | – | – | IC50 (GPR6; [1]): 100 to 1000 nM; IC50 (GPR3; [2]): ≥ 30000 nM |
| CC(C)(O)[C@@H](O)c1cc2nc(N3CCN(Cc4ccccc4F)CC3)c(-c3cnn(C4CC4)c3)nc2cn1 (single isomer, unassigned) [Compound 742] | 100 to 1000 nM | 1000 to 30000 nM | – | – | – |
| CC(C)(O)C(=O)c1cc2nc(N3CCC(Oc4ccc(F)cc4F)CC3)c(-c3cnn(CF)c3)nc2cn1 [Compound 621, 1-{2-[4-(2,4-difluorophenoxy)-1-piperidyl]-3-[1-(fluoromethyl)-4-pyrazolyl]-1,4,6-triaza-7-naphthyl}-2-hydroxy-2-methyl-1-propanone] | 100 to 1000 nM | 1000 to 30000 nM | – | – | – |
| Cn1cc(-c2nc3cnc(OCC(C)(C)O)cc3nc2N2CCC(Oc3ccc(F)cc3F)CC2)cn1 [Compound 696, 1-{2-[4-(2,4-difluorophenoxy)-1-piperidyl]-3-(1-methyl-4-pyrazolyl)-1,4,6-triaza-7-naphthyloxy}-2-methyl-2-propanol] | 100 to 1000 nM | 1000 to 30000 nM | – | – | – |
| CO[C@@H](CO)c1cc2nc(N3CCC(Oc4ccc(F)cc4F)CC3)c(-c3cnn(C)c3)nc2cn1 (single isomer, unassigned) [Compound 640] | 100 to 1000 nM | 1000 to 30000 nM | – | – | – |
| CC1CN(c2nc3ccncc3nc2-c2cn[nH]c2)CCN1Cc1ccc(F)cc1F (single isomer, unassigned) [Compound 49, 2-(4-(2,4-difluorobenzyl)-3-methylpiperazin-1-yl)-3-(1H-pyrazol-4-yl)pyrido[3,4-b]pyrazine] | – | – | – | – | IC50 (GPR6; [5]): 1000 to 30000 nM; IC50 (GPR3; [5]): 1000 to 30000 nM |
| N#Cc1ccc2nc(N3CCN(Cc4cc(Cl)ccc4Cl)CC3)c(-c3ncc[nH]3)nc2c1 [Compound 27, 2-{4-[(2,5-dichlorophenyl)methyl]piperazin-1-yl}-3-(1H-imidazol-2-yl)quinoxaline-6-carbonitrile] | – | – | – | – | IC50 (GPR6; [5]): 1000 to 30000 nM; IC50 (GPR3; [5]): 100 to 1000 nM |
| CC(=O)N1CCc2nc(N3CCN(Cc4cccn(C)c4=O)CC3)c(-c3cnn(C)c3)nc2C1 [Compound 534, 3-({4-[6-acetyl-3-(1-methyl-4-pyrazolyl)-5,6,7,8-tetrahydro-1,4,6-triaza-2-naphthyl]-1-piperazinyl}methyl)-1-methyl-2(1H)-pyridinone] | – | – | – | – | IC50 (GPR6; [1]): ≥ 30000 nM; IC50 (GPR3; [2]): ≥ 30000 nM |
| CC(=O)N1CCc2nc(N3CCC(Oc4ccc(F)cc4F)CC3)c(-c3ccn[nH]3)nc2C1 [Compound 11, 1-{2-[4-(2,4-difluorophenoxy)piperidin-1-yl]-3-(1H-pyrazol-5-yl)-5H,6H,7H,8H-pyrido[3,4-b]pyrazin-6-yl}ethan-1-one] | – | – | – | – | IC50 (GPR6; [5]): 1000 to 30000 nM; IC50 (GPR3; [5]): 1000 to 30000 nM |
| CC(C)(O)Cc1cc2nc(N3CCC(Oc4ccc(F)cc4F)CC3)c(-c3cnn(C4CC4)c3)nc2cn1 [Compound 705, 1-{3-(1-cyclopropyl-4-pyrazolyl)-2-[4-(2,4-difluorophenoxy)-1-piperidyl]-1,4,6-triaza-7-naphthyl}-2-methyl-2-propanol] | 100 to 1000 nM | 1000 to 30000 nM | – | – | – |
| Cn1cc(-c2nc3cnc([C@](C)(O)CO)cc3nc2N2CCC(Oc3ccc(F)cc3F)CC2)cn1 (single isomer, unassigned) [Compound 565] | – | – | – | – | IC50 (GPR6; [1]): 1000 to 30000 nM; IC50 (GPR3; [2]): 1000 to 30000 nM |
| Cn1cc(-c2nc3cc([C@](C)(O)CO)ncc3nc2N2CCC(Oc3ccc(F)cc3F)CC2)cn1 (single isomer, unassigned) [Compound 691] | 100 to 1000 nM | 1000 to 30000 nM | – | – | – |
| CC(=O)N1CCc2nc(N3CCN(Cc4ccc[nH]c4=O)CC3)c(-c3cnn(C)c3)nc2C1 [Compound 531, 3-({4-[6-acetyl-3-(1-methyl-4-pyrazolyl)-5,6,7,8-tetrahydro-1,4,6-triaza-2-naphthyl]-1-piperazinyl}methyl)-2(1H)-pyridinone] | – | – | – | – | IC50 (GPR6; [1]): ≥ 30000 nM; IC50 (GPR3; [2]): ≥ 30000 nM |
| OCCOc1cc2nc(-c3cnn(CF)c3)c(N3CCN(Cc4ccc(F)cc4F)CC3)nc2cn1 [Compound 760, 2-(3-{4-[(2,4-difluorophenyl)methyl]-1-piperazinyl}-2-[1-(fluoromethyl)-4-pyrazolyl]-1,4,6-triaza-7-naphthyloxy)ethanol] | 100 to 1000 nM | 100 to 1000 nM | – | – | – |
| Nc1cc2nc(N3CCC(Oc4ccc(F)cc4F)CC3)c(-c3cnn(C4CC4)c3)nc2cn1 [Compound 462, 3-(1-cyclopropyl-1H-pyrazol-4-yl)-2-[4-(2,4-difluorophenoxy)piperidin-1-yl]pyrido[3,4-b]pyrazin-7-amine] | – | – | 100 to 1000 nM | 1000 to 30000 nM | – |
| COCCN1CCc2nc(N3CCC(Oc4ccc(F)cc4F)CC3)c(-c3cnn(C4CCCCO4)c3)nc2C1 (centres unmarked) [Compound 142, 4-(2,4-difluorophenoxy)-1-[6-(2-methoxyethyl)-3-[1-(oxan-2-yl)-1H-pyrazol-4-yl]-5H,6H,7H,8H-pyrido[3,4-b]pyrazin-2-yl]piperidine] | – | – | 1000 to 30000 nM | 1000 to 30000 nM | – |
| CC(=O)N1CCc2nc(N3CCC(Oc4ccc(F)cc4F)CC3)c(-c3cnn(CC(F)F)c3)nc2C1 [Compound 3, 1-{3-[1-(2,2-difluoroethyl)-1H-pyrazol-4-yl]-2-[4-(2,4-difluorophenoxy)piperidin-1-yl]-5H,6H,7H,8H-pyrido[3,4-b]pyrazin-6-yl}ethan-1-one] | – | – | – | – | IC50 (GPR6; [5]): 100 to 1000 nM; IC50 (GPR3; [5]): 1000 to 30000 nM |
| Fc1ccc(OC2CCN(c3nc4c(nc3-c3cn[nH]c3)CN(C3COC3)CC4)CC2)c(F)c1 [Compound 199, 4-(2,4-difluorophenoxy)-1-[6-(oxetan-3-yl)-3-(1H-pyrazol-4-yl)-5H,6H,7H,8H-pyrido[3,4-b]pyrazin-2-yl]piperidine] | – | – | 100 to 1000 nM | 1000 to 30000 nM | – |
| O=C(CO)N1CCc2nc(N3CCC(Oc4ccc(F)cc4F)CC3)c(-c3cnn(C4CCCCO4)c3)nc2C1 (centres unmarked) [Compound 204, 1-{2-[4-(2,4-difluorophenoxy)piperidin-1-yl]-3-[1-(oxan-2-yl)-1H-pyrazol-4-yl]-5H,6H,7H,8H-pyrido [3,4-b]pyrazin-6-yl}-2-hydroxyethan-1-one] | – | – | 100 to 1000 nM | ≥ 30000 nM | – |
| CC(=O)N1CCc2nc(N3CCC(Oc4ccc(F)cc4F)CC3)c(-c3c(C)n[nH]c3C)nc2C1 [Compound 98, 1-{2-[4-(2,4-difluorophenoxy)piperidin-1-yl]-3-(3,5-dimethyl-1H-pyrazol-4-yl)-5H,6H,7H,8H-pyrido[3,4-b]pyrazin-6-yl}ethan-1-one] | – | – | ≥ 30000 nM | ≥ 30000 nM | – |
| COCc1cccc(-c2nc3c(nc2N2CCC(Oc4ccc(F)cc4F)CC2)CCN(C(C)=O)C3)n1 [Compound 161, 1-{2-[4-(2,4-difluorophenoxy)piperidin-1-yl]-3-[6-(methoxymethyl)pyridin-2-yl]-5H,6H,7H,8H-pyrido[3,4-b]pyrazin-6-yl}ethan-1-one] | – | – | 1000 to 30000 nM | 1000 to 30000 nM | – |
| Nc1cc2nc(N3CCC(Oc4ccc(F)cc4F)CC3)c(-c3cnn(C(F)F)c3)nc2cn1 [Compound 460, 3-[1-(difluoromethyl)-1H-pyrazol-4-yl]-2-[4-(2,4-difluorophenoxy)piperidin-1-yl]pyrido[3,4-b]pyrazin-7-amine] | – | – | 100 to 1000 nM | 1000 to 30000 nM | – |

Further lines, with some results ahead:

| IC50 (GPR6; procedure of Example 24) | IC50 (GPR3; procedure of Example 24) | IC50 (GPR6; [3]) | IC50 (GPR3; [4]) | Compound | further results |
| --- | --- | --- | --- | --- | --- |
| < 100 nM | 100 to 1000 nM | – | – | CC(=O)N1CCc2nc(N3CCC([C@@H](F)c4ccc(F)cc4F)CC3)c(-c3cnn(C)c3)nc2C1 (single isomer, unassigned) [Compound 659] | – |
| – | – | 1000 to 30000 nM | 1000 to 30000 nM | CNC(=O)c1cccc(-c2nc3c(nc2N2CCC(Oc4ccc(F)cc4F)CC2)CCN(C(C)=O)C3)n1 [Compound 132, 6-{6-acetyl-2-[4-(2,4-difluorophenoxy)piperidin-1-yl]-5H,6H,7H,8H-pyrido[3,4-b]pyrazin-3-yl}-N-methylpyridine-2-carboxamide] | – |
| ≥ 30000 nM | ≥ 30000 nM | – | – | COc1ccc(C(=O)N2CCN(c3nc4c(nc3-c3cnn(C)c3)CN(C(C)=O)CC4)CC2)c(OC)c1 [Compound 287, 1-{2-[4-(2,4-dimethoxybenzoyl)piperazin-1-yl]-3-(1-methyl-1H-pyrazol-4-yl)-5H,6H,7H,8H-pyrido[3,4-b]pyrazin-6-yl}ethan-1-one] | – |
| – | – | 100 to 1000 nM | 1000 to 30000 nM | CC(=O)N1CCc2nc(N3CCC(Oc4ccc(F)cc4F)CC3)c(-c3cnn(C4CC4)c3)nc2C1 [Compound 164] | – |
| – | – | – | 1000 to 30000 nM | COc1nc(-c2nc3c(nc2N2CCC(Oc4ccc(F)cc4F)CC2)CCN(C(C)=O)C3)ccc1F [Compound 83, 1-{2-[4-(2,4-difluorophenoxy)piperidin-1-yl]-3-(5-fluoro-6-methoxypyridin-2-yl)-5H,6H,7H,8H-pyrido[3,4-b]pyrazin-6-yl}ethan-1-one] | – |
